The values below come from patent US12083098B2, “Treatment of idiopathic pulmonary fibrosis with glycogen synthase kinase 3 form β inhibitors” (Actuate Therapeutics Inc., priority 2018, dated 2024).

Assay [1] has as its system TGF-β adenovirus induced pulmonary fibrosis. The assay is described as follows: TGF-β adenovirus-induced pulmonary fibrosis model in mice. It is filed as in vivo. How it is done: In a second model, pulmonary fibrosis was initiated by intratracheal instillation of constitutively active TGF-β adenoviral vectors (Ad-TGF-β) bearing C223S/C225S mutations, as reported by Mackinnon A C et al., Am J Respir Crit Care Med 2012, 185:537-46) with some modifications. Briefly, 3×10^8 pfu of Ad-TGF-β or eGFP adenovirus control vector (Ad-eGFP) were administered intratracheally in a volume of 40 μl. Mice were then monitored daily until the completion of the 14 d time-course. For GSK-3β inhibition studies, mice received daily 9-ING-41 treatment 7 d after administration of the adenoviral vectors. At the conclusion of the time-course pulmonary function testing and CT scans were performed as described (Tucker T et al., 2019, supra; Kamata H et al., 2017, supra; Boren J et al., 2017, supra; Tucker T A et al., 2016, supra.
(§1) All statistical analyses of animal studies was performed using the Mann Whitney U test. (Student's t-test was used for in vitro studies). A p-value of less than 0.05 was considered significant.
Pulmonary fibrosis was initiated by intratracheal instillation of constitutively active TGF-β adenoviral vectors (Ad-TGF-0) bearing C223S/C225S mutations, as previously reported (Mackinnon A C et al., Am J Respir Crit Care Med 2012, 185:537-46) with some modifications. Briefly, 3×10^8 plaque forming units (pfu) of Ad-TGF-β or eGFP adenovirus control vector (Ad-eGFP) were administered intratracheally in a volume of 40 μl. Mice were then monitored daily until the completion of the 14 d time-course. For GSK-3β inhibition studies, mice received daily 9-ING-41 treatment 7 d after administration of the adenoviral vectors. At the conclusion of the time-course pulmonary function testing and CT scans were performed as described (Tucker T et al., 2019, supra; Kamata H et al., 2017, supra; Boren J et al., 2017, supra; Tucker T A et al., 2016, supra.

Assay [2] concerns bleomycin-induced pulmonary fibrosis. The assay is described as follows: Bleomycin-induced pulmonary fibrosis model in mice. It counts as in vivo, C57BL/6 mice. How it is done: All animal studies were approved by the Institutional Animal Care and Use Committee at the University of Texas Health Science Center at Tyler. C57BL/6 mice (10-12 weeks of age, ≈20 g (from Jackson Laboratory, Bar Harbor ME) were first anesthetized with xylazine/ketamine by intraperitoneal (TP) injection. Lung injury was then initiated in accordance with (Sisson T H et al., Am J Pathol 2015, 185:[…]) with some modifications. Bleomycin sulfate (Teva, 0.8 units/kg) was administered intratracheally via an intratracheal cannula. Animals were monitored daily for sign of respiratory distress, significant weight loss or moribund condition. The control group received normal saline under the same conditions.
Treatments were begun 14 d after the initiation of injury. For GSK-3β inhibitor studies, treatment with 9-ING-41 (gift from Actuate Therapeutics, Ft. Worth, TX), at 30 mg/kg, or vehicle control dimethylsulfoxide/DMSO in a volume of 40 μl, was administered daily by IP injection for up to 14 d.
At the completion of the 28 d time course mice were evaluated by flexivent (Tucker T et al., Am J Respir Cell Mol Biol 2019 (doi: 10.1165/rcmb.2018-0121OC. Epub ahead of print); Kamata H et al., Sci Rep 2017, 7:4556; Boren J et al., supra; Tucker T A et al., 2014, supra; Tucker T A et al., Clin Transl Med 5: 17, 2016) for changes in pulmonary function including elastance and compliance. Briefly, mice were anesthetized with a ketamine/xylazine mixture. Anesthetized mice were intubated by inserting a sterile, 20-gauge intravenous cannula through the vocal cords into the trachea and were maintained under anesthesia using isoflurane during pulmonary function testing. Measurements were performed using the flexiVent system (SCIREQ, Tempe AZ). The “snapshot perturbation method” was used to determine lung compliance, according to manufacturer's specifications. At 28 d, mice were euthanized and lungs harvested en bloc. Lung morphometry was determined by trichrome staining of 5 μm lung tissue sections as described in the above cited references. All tissue sections were first de-paraffinized and subjected to antigen retrieval using a citrate buffer at 95° C. for 20 minutes. Tissue analyses, collagen deposition and localization were initially assessed by Trichrome staining. Immunofluorescence was used to visualize α-SMA (MAB1420, R&D), Confocal microscopy was then used to visualize immunofluorescence and co-localization of the markers. Images were acquired from a field of view at 0.4-μm z-axis increments with the LSM 510 Meta confocal system (Carl Zeiss) at 40× as described.
as §1

Molecules are shown by their SMILES. “Also recorded” adds a separate entry of the source.

Turning to `Cn1cc(C2=C(c3coc4ccc(F)cc34)C(=O)NC2=O)c2cc3c(cc21)OCO3` [9-ING-41], in assay [1] (Ad-TGF-β 3×10^8 pfu intratracheal, 9-ING-41 30 mg/kg daily ip from day 7 for 7 d, read at 14 d, n=6, p<0.05 vs controls, 30 mg/kg), the lung compliance entry is reported as “significantly improved; also recorded: improved lung function”. In assay [1] (TGF-β adenovirus model, at completion of 14 d time course), the lung volume entry is “increased lung volume”. Also, in assay [1] (TGF-β adenovirus model, compared to DMSO-treated controls, n=6), the “areas of injury and collagen deposition in lung sections (Trichrome)” value is reported as “reduced areas of injury”. In addition, in assay [2] (bleomycin 0.8 U/kg intratracheal, 30 mg/kg daily ip from day 14, read at 28 d, vs DMSO vehicle, p=0.026, 30 mg/kg), the “lung volume (gated CT scan)” value was “significantly improved; also recorded: increased lung volume”. For the same molecule, in assay [2] (bleomycin injured lungs, compared to vehicle (DMSO) treated controls), the “collagen 1 deposition in lung sections (immunostaining, confocal microscopy 40×)” value is recorded as “reduced”. In assay [2] (bleomycin model, 30 mg/kg daily ip, 5 μm sections, n=6, compared to vehicle treated animals), the “areas of injury / fibrotic foci in lung sections (Trichrome)” value is “fewer in number and smaller”. Besides, the “collagen deposition within the fibrotic lesions” value in assay [2] (bleomycin model, 30 mg/kg daily ip, compared to DMSO-treated controls) is “generally reduced”. The “lung compliance (Scireq flexivent)” value in assay [2] (bleomycin sulfate 0.8 U/kg intratracheal, 9-ING-41 30 mg/kg daily ip from day 14 for up to 14 d, read at 28 d, vs DMSO vehicle, p=0.04, 30 mg/kg) is recorded as “significantly improved; also recorded: improved lung function”. Also, the “α-SMA expression in lung sections (immunostaining, confocal microscopy 40×)” value in assay [2] (marker of myofibroblast differentiation, n=3 mice/treatment, compared to vehicle (DMSO)) is recorded as “reduced”.
